Test results as given in the supplement of paper PMC11451515.

Test system: P12-Ichikawa
Test: cell viability relative to DMSO control; higher = less cytotoxic
Settings: 48 h
In short: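 NOMO1, SEM and P12-Ichikawa leukemia cells spent at least four passages adapting to each medium before use. They were seeded at 500 cells/well (NOMO1, SEM) or 1000 cells/well (P12-Ichikawa) in 5 μl in 1536-well plates and pin-dosed with library compounds in DMSO at 11 threefold steps from 47 μM down to 0.79 nM. After 48 h at 37°C, CellTiter-Glo One luminescence was read. Viability is reported as a percentage of the DMSO wells on each plate, with cell-free wells as background.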

[1] = HPLM + 10% dialyzed FBS, 0.000781 µM
[2] = HPLM + 10% dialyzed FBS, 0.00234 µM
[3] = HPLM + 10% dialyzed FBS, 0.00702 µM
[4] = HPLM + 10% dialyzed FBS, 0.0211 µM
[5] = HPLM + 10% dialyzed FBS, 0.0632 µM
[6] = HPLM + 10% dialyzed FBS, 0.19 µM
[7] = HPLM + 10% dialyzed FBS, 0.569 µM
[8] = HPLM + 10% dialyzed FBS, 1.71 µM
[9] = HPLM + 10% dialyzed FBS, 5.12 µM
[10] = HPLM + 10% dialyzed FBS, 15.4 µM
[11] = HPLM + 10% dialyzed FBS, 46.1 µM
[12] = RPMI 5 mM glucose + 10% FBS, 0.000781 µM
[13] = RPMI 5 mM glucose + 10% FBS, 0.00234 µM
[14] = RPMI 5 mM glucose + 10% FBS, 0.00702 µM
[15] = RPMI 5 mM glucose + 10% FBS, 0.0211 µM
[16] = RPMI 5 mM glucose + 10% FBS, 0.0632 µM
[17] = RPMI 5 mM glucose + 10% FBS, 0.19 µM
[18] = RPMI 5 mM glucose + 10% FBS, 0.569 µM
[19] = RPMI 5 mM glucose + 10% FBS, 1.71 µM
[20] = RPMI 5 mM glucose + 10% FBS, 5.12 µM
[21] = RPMI 5 mM glucose + 10% FBS, 15.4 µM
[22] = RPMI 5 mM glucose + 10% FBS, 46.1 µM
[23] = RPMI 5 mM glucose + 10% dialyzed FBS, 0.000781 µM
[24] = RPMI 5 mM glucose + 10% dialyzed FBS, 0.00234 µM
[25] = RPMI 5 mM glucose + 10% dialyzed FBS, 0.00702 µM
[26] = RPMI 5 mM glucose + 10% dialyzed FBS, 0.0211 µM
[27] = RPMI 5 mM glucose + 10% dialyzed FBS, 0.0632 µM
[28] = RPMI 5 mM glucose + 10% dialyzed FBS, 0.19 µM
[29] = RPMI 5 mM glucose + 10% dialyzed FBS, 0.569 µM
[30] = RPMI 5 mM glucose + 10% dialyzed FBS, 1.71 µM
[31] = RPMI 5 mM glucose + 10% dialyzed FBS, 5.12 µM
[32] = RPMI 5 mM glucose + 10% dialyzed FBS, 15.4 µM
[33] = RPMI 5 mM glucose + 10% dialyzed FBS, 46.1 µM

Structure (SMILES)	cell viability [1]	cell viability [2]	cell viability [3]	cell viability [4]	cell viability [5]	cell viability [6]	cell viability [7]	cell viability [8]	cell viability [9]	cell viability [10]	cell viability [11]	cell viability [12]	cell viability [13]	cell viability [14]	cell viability [15]	cell viability [16]	cell viability [17]	cell viability [18]	cell viability [19]	cell viability [20]	cell viability [21]	cell viability [22]	cell viability [23]	cell viability [24]	cell viability [25]	cell viability [26]	cell viability [27]	cell viability [28]	cell viability [29]	cell viability [30]	cell viability [31]	cell viability [32]	cell viability [33]
CSCC[C@@H](NC(=O)[C@@H](Cc1ccccc1)NC(=O)CNC(=O)CNC(=O)[C@@H](N)Cc1ccc(O)cc1)C(=O)O	84.4%	96.7%	105%	11%	113%	102%	112%	104%	105%	120%	115%	82.2%	91.9%	101%	12.6%	107%	105%	104%	111%	99.8%	101%	102%	85.1%	88.1%	94.1%	24.3%	101%	98.7%	104%	101%	102%	97.9%	109%
C[S+](=O)([O-])N1CCc2c(-c3cnc(N)nc3)nc(N3CCOCC3)nc21	110%	115%	110%	120%	111%	119%	115%	93.6%	104%	107%	98.5%	105%	97.8%	114%	106%	102%	108%	103%	73%	84.8%	79.6%	71.8%	98.2%	116%	110%	119%	112%	115%	107%	85.6%	103%	85.4%	78.5%
OC1=CC2=C(C(=C1)O)C(=O)\C=C(/O2)C3=CC=CC=C3	104%	102%	105%	108%	110%	108%	103%	110%	104%	77.9%	3.28%	104%	104%	107%	111%	115%	110%	101%	107%	103%	82.9%	3.34%	99.5%	103%	102%	99.9%	103%	100%	114%	104%	103%	84.4%	4.92%
C=CC(=O)N1CCC[C@@H](n2nc(-c3ccc(Oc4ccccc4)cc3)c3c(N)ncnc32)C1	127%	123%	120%	121%	114%	112%	111%	91.8%	80.7%	76.3%	80.5%																						
CC(C)C[C@H](NC(=O)[C@H](CCc1ccccc1)NC(=O)CN1CCOCC1)C(=O)N[C@@H](Cc1ccccc1)C(=O)N[C@@H](CC(C)C)C(=O)[C@@]1(C)CO1	86.2%	96.7%	95.1%	86.1%	5.6%	5.9%	5.35%	4.68%	1.59%	-0.411%	-0.285%	83.1%	96.3%	92.7%	46.1%	4.86%	4.74%	4.53%	4.03%	2.11%	-0.0452%	-0.307%	78.8%	94.4%	91.2%	54.1%	5.27%	4.96%	4.93%	3.8%	1.93%	-0.204%	-0.46%
O=C(Nc1cc2cc[nH]c2cn1)c1ccccc1	95%	90.7%	109%	112%	113%	109%	111%	106%	5.06%	1.54%	-0.599%	93.1%	113%	111%	114%	119%	130%	109%	104%	90.4%	45.8%	1.1%	79.4%	101%	102%	104%	99.7%	102%	103%	101%	58.2%	7.54%	1.18%
Cc1ccc([S+](=O)([O-])N[C@@H](Cc2ccccc2)C(=O)CCl)cc1	95%	106%	101%	101%	105%	107%	105%	106%	104%	94.4%	46.4%	90.8%	92.4%	95.7%	104%	113%	107%	88.7%	105%	109%	96.2%	36%	93.9%	92.6%	97.2%	102%	95.1%	91.3%	93.2%	94.7%	106%	105%	36.9%
COC(=O)[C@@H]1[C@H]2C[C@H]3c4[nH]c5ccccc5c4CCN3C[C@@H]2CC[C@@H]1O	113%	118%	122%	116%	122%	128%	121%	117%	20.8%	14.4%	12.4%												103%	114%	114%	124%	111%	124%	127%	128%	70.6%	32.9%	17.9%
C=C(C)[C@H]1Cc2c(ccc3c2O[C@@H]2COc4cc(OC)c(OC)cc4[C@@H]2C3=O)O1	101%	108%	107%	111%	95.9%	118%	90.6%	76.5%	56.1%	19.7%	17.7%	108%	113%	104%	106%	88.2%	99.5%	73.6%	60.3%	44.3%	17.3%	10.1%	98.6%	106%	110%	107%	102%	95.7%	76.6%	69.3%	59.9%	34%	24.1%
Cn1c(CNc2ccc(C(=N)N)cc2)nc2cc(C(=O)N(CCC(=O)O)c3ccccn3)ccc21	96.7%	102%	107%	109%	105%	114%	104%	109%	117%	113%	114%	100%	118%	120%	118%	123%	113%	122%	128%	115%	110%	120%	97.3%	111%	112%	110%	115%	110%	109%	120%	112%	105%	112%
O=C1c2c(O)ccc(O)c2C(=O)c2c(NCCNCCO)ccc(NCCNCCO)c21	101%	105%	108%	110%	104%	99.7%	6.68%	36.9%	8.95%	7%	5.91%	96%	101%	96.7%	124%	107%	94.3%	4.89%	32.4%	5.93%	5.48%	5.03%	97.5%	96%	98%	106%	106%	102%	8.07%	45.4%	9.1%	7.62%	9.05%
Nc1nc(N)c2nc(CNc3ccc(C(=O)NC(CCC(=O)O)C(=O)O)cc3)cnc2n1 (centres undefined)	103%	111%	110%	114%	59.2%	47.7%	31%	31.8%	44%	39.6%	29.7%	103%	103%	103%	123%	71.2%	37.9%	46.6%	47%	38.5%	51.2%	61%	105%	95.5%	105%	112%	86%	28.1%	25.8%	24%	25.9%	26.2%	26.2%
C/C=C(/C)C(=O)O[C@H]1C(C)=C[C@]23C(=O)[C@@H](C=C(CO)[C@@H](O)[C@]12O)[C@H]1[C@@H](C[C@H]3C)C1(C)C	111%	122%	106%	99.1%	96.8%	90.6%	87%	97.2%	97.3%	79.7%	81.4%	122%	131%	99.8%	87.9%	79.7%	79.2%	82.3%	82.4%	78.2%	77.8%	74.9%	116%	122%	101%	94.6%	89.9%	81.6%	79%	82.6%	86.7%	81.1%	70.6%
CC(N)C12CC3CC(CC(C3)C1)C2 (centres undefined)	105%	108%	111%	117%	124%	109%	111%	114%	110%	99.1%	8.72%	103%	113%	101%		123%	118%	112%	112%	111%	117%	13.2%	105%	106%	115%	101%	112%	110%	108%	125%	108%	105%	18.8%
C#C[C@]1(O)CC[C@H]2[C@@H]3CCc4cc(O)ccc4[C@H]3CC[C@@]21C	102%	98.3%	95.9%	97.4%	95.7%	102%	89.5%	97.3%	95.8%	75.3%	47.2%	98.3%	95.6%	89.4%	93.6%	92.3%	94.3%	96.7%	83.7%	89.1%	67.7%	42.6%	87.5%	86.7%	88.9%	92.3%	93.3%	92.4%	95.6%	85.6%	81.8%	72.5%	58.3%
O=C(c1ccc(Nc2nccc(-c3cc4ccccc4s3)n2)cc1)N1CCC(N2CCCC2)CC1	115%	109%	116%	112%	120%	107%	103%	98.8%	99.5%	67.7%	3.26%	117%	125%	119%	117%	114%	107%	112%	112%	105%	82.9%	6.91%	113%	119%	115%	119%	123%	106%	113%	107%	101%	63.8%	7%
